From patent publication US20110165594A1, “SYSTEMIC MARKERS FOR ASTHMA AND ANALOGOUS DISEASES” (THE CLEVELAND CLINIC FOUNDATION, priority 2005, published 2011)

Experiments:
Assay type in all cases: cell-based, human
[1] = tested on: SOD protein; assay: SOD protein in treated BET1A cells
Procedure: (§1) Cell Culture. BET1A, a human bronchial epithelial cell line, was cultured in serum-free Lechner and LaVeck medium (LHC-8, Biofluids, Inc., Rockville, Md.) with additives 0.33 nM retinoic acid, […] epinephrine and the antibiotic combination, 1% penicillin/streptomycin, on plates pre-coated with coating media containing 29 μg/ml collagen (Vitrogen: Collagen Corp., Palo Alto, Calif.), 10 μg/ml bovine serum albumin (Biofluids, Rockville, Md.), and 10 μg/ml fibronectin (Calbiochem, La Jolla, Calif.) for 5 min. HAEC obtained by bronchial brushing were cultured in serum-free Lechner and LaVeck media (LHC8) on plates pre-coated with coating media (Reddel R R, et al., Cancer Res 1988, 48:1904-1909). To evaluate oxidant stress and antioxidants in apoptotic events, BET-1A cells were stimulated at 70% confluence with SOD inhibitor, 2-Methoxyoestradiol (2-ME) (Sigma, St Louis, Mo.), or pyrogallol, a superoxide generating compound (J. T. Baker Inc, Phillipsburg, N.J.) (Comhair S A, et al., FASEB J 2001, 15:70-78), or hydrogen peroxide (Sigma, St. Louis, Mo.) in a dose and time dependent manner. 293T cells, a clone of 293 (human embryonic kidney fibroblast cells) that expresses the Simian virus 40 large-T antigen, were maintained in DMEM (Invitrogen) with 10% FCS.
(§2) Western Blot Assay. […] Total protein was measured by using the Coomassie protein assay (Pierce, Rockford, Ill.). […]

[2] = tested on: BAX; assay: BAX levels by Western blot; conditions: BET1A cells
Procedure: as §1, §2

[3] = tested on: GSH; assay: Intracellular GSH in BET1A cells
Procedure: Antioxidant assays. Bronchial epithelial cells (BET1A) exposed to 5 µM 2-ME for 30 min to 24 h, or serum of asthmatic individuals, were assayed for glutathione (GSH), glutathione peroxidase (GPx), catalase, and SOD activity. SOD activity was determined by the rate of reduction of cytochrome c, with one unit (U) of SOD activity defined as the amount of SOD required to inhibit the rate of cytochrome c reduction by 50% (Nebot C, et al., Anal Biochem 1993, 214:442-451). The final reaction volume was 3 ml and included 50 mM potassium phosphate buffer, […] cytochrome c, 0.05 mM xanthine, and a 0.1 mM EDTA solution. Xanthine oxidase (Sigma, St Louis, Mo.) was added at a concentration sufficient to induce a 0.020 per minute change in absorbance at 550 nm. GSH levels were measured as previously described (Comhair S A, et al., Am J Respir Crit Care Med 1999, 159:1824-1829).

[4] = tested on: BET1A cells; assay: Apoptosis detection by Annexin V binding
Procedure: Cell Culture. BET1A, a human bronchial epithelial cell line, was cultured in serum-free Lechner and […] medium (LHC-8, Biofluids, Inc., Rockville, Md.) with additives 0.33 nM retinoic acid, […] epinephrine and the antibiotic combination, 1% penicillin/streptomycin, on plates pre-coated with coating media containing 29 μg/ml collagen (Vitrogen: Collagen Corp., Palo Alto, Calif.), 10 μg/ml bovine serum albumin (Biofluids, Rockville, Md.), and 10 μg/ml fibronectin (Calbiochem, La Jolla, Calif.) for 5 min. HAEC obtained by bronchial brushing were cultured in serum-free Lechner and […] media (LHC8) on plates pre-coated with coating media ([…], et al., Cancer Res 1988, 48:1904-1909). […] T. Baker Inc, […], et al., FASEB J 2001, 15:70-78), or hydrogen peroxide (Sigma, St. Louis, Mo.) in a dose and time dependent manner. 293T cells, a clone of 293 (human embryonic kidney fibroblast cells) that expresses the Simian virus 40 large-T antigen, were maintained in DMEM (Invitrogen) with 10% FCS. Cell Viability and Apoptosis detection. Cell viability was assessed by bright-field microscopy using a trypan blue dye (0.4%) exclusion method. The mean survival was determined by examining four different low power fields. Annexin V binding was used to detect apoptotic cells as previously described (Trautmann A, et al., J Allergy Clin Immunol 2001, 108:839-846). Briefly, cells were incubated with 1.0 μg/mL annexin V-FITC and 2.5 μg/mL propidium iodide (BD Biosciences, Palo Alto, Calif.). The stained cells were analyzed with a FACScan (Becton Dickinson, San Jose, Calif.), using an argon ion laser at 488 nm and emission recorded at 520 nm with band pass and short pass filters. Gating was done on the forward angle and right angle light scatter only to exclude debris and cell clumps. […] The RFI was calculated using the ratio of the linearized mean fluorescence of the cell populations, as provided by the CellQuest software (Becton Dickinson, San Jose, Calif.). Apoptotic cells are identified as the Annexin positive-PI negative fraction.

[5] = tested on: BET1A-cells; assay: Tyrosine nitrated proteins in BET1A cells (anti-nitrotyrosine Western, 2D gel)
Procedure: Western Blot Assay. Airway epithelial cells freshly obtained by bronchoscopic brushing from asthmatics and healthy controls, or BET1A cells, were suspended in buffer (3 mM dithiothreitol, 5 μg/ml aprotinin, 1 μg/ml leupeptin and pepstatin A, 0.1 mM PMSF, 1% NP40 and 40 mM Hepes pH 7.5) and cell lysate prepared by three cycles of freeze/thaw. Total protein was measured by using the Coomassie protein assay (Pierce, Rockford, Ill.). Whole cell lysate protein was denatured and reduced by treatment with buffer containing 0.05 M Tris (pH 6.8), 1% sodium dodecyl sulfate (SDS), 10% glycerol, 0.00125% bromphenol blue and 0.5% β mercaptoethanol for 3 minutes at 95° C. Total protein was separated by electrophoresis on a 10% SDS-polyacrylamide gel, and then electrophoretically transferred onto nitrocellulose (NitroBind EP4HY315F5, Fisher Scientific, Pittsburgh, Pa.) or Polyvinylidene Difluoride membrane (Pierce, Rockford, Ill.) for 1 h at 4° C. Membranes were incubated with blocking buffer [5% non fat dry milk in TBS (20 mM Tris-HCl (pH 7.0) and 137 mM NaCl) with 0.1% Tween] for 1 h at room temperature to block nonspecific binding and then probed with a primary antibody in blocking buffer overnight at 4° C. […]
Two dimentional gel electrophoresis. […] Total Protein was measured by using Coomassie protein assay (Pierce, Rockfod, Ill.). […]

[6] = tested on: BET1A cells; assay: Cell viability by trypan blue exclusion
Procedure: BET1A, a human bronchial epithelial cell line, was cultured in serum-free Lechner and LaVeck medium (LHC-8, Biofluids, Inc., Rockville, Md.) with additives 0.33 nM retinoic acid, 2.75 mM epinephrine and the antibiotic combination, 1% penicillin/streptomycin, on plates pre-coated with coating media containing 29 μg/ml collagen (Vitrogen: Collagen Corp., Palo Alto, Calif.), 10 μg/ml bovine serum albumin (Biofluids, Rockville, Md.), and 10 μg/ml fibronectin (Calbiochem, La Jolla, Calif.) for 5 min.

[7] = tested on: caspase-3; assay: Caspase-3-like enzyme activity in BET1A cells; conditions: time dependent
Procedure: as §1, with “293T cells, a clone of 293 (human embryonic kidney fibroblast cells) that expresses the Simian virus 40 large-T antigen, were maintained in DMEM (Invitrogen) with 10% FCS.” left out
Caspase-3-like enzyme activity. Caspase-3-like activity was measured by a […] assay (BD PharMingen, San Diego, Calif.). […] AMC fluorescence is quantified by UV spectrofluorometry with an excitation wavelength of 380 nm and an emission wavelength range of 420-460 nm.

[8] = tested on: SOD; assay: SOD activity (rate of cytochrome c reduction) in BET1A cells
Procedure: Cell Culture. BET1A, a human bronchial epithelial cell line, was cultured in serum-free Lechner and […] medium (LHC-8, Biofluids, Inc., Rockville, Md.) with additives 0.33 nM retinoic acid, […] epinephrine and the antibiotic combination, 1% penicillin/streptomycin, on plates pre-coated with coating media containing 29 μg/ml collagen (Vitrogen: Collagen Corp., Palo Alto, Calif.), 10 μg/ml bovine serum albumin (Biofluids, Rockville, Md.), and 10 μg/ml fibronectin (Calbiochem, La Jolla, Calif.) for 5 min. HAEC obtained by bronchial brushing were cultured in serum-free Lechner and […] media (LHC8) on plates pre-coated with coating media ([…], et al., Cancer Res 1988, 48:1904-1909). […] T. Baker Inc, […], et al., FASEB J 2001, 15:70-78), or hydrogen peroxide (Sigma, St. Louis, Mo.) in a dose and time dependent manner. 293T cells, a clone of 293 (human embryonic kidney fibroblast cells) that expresses the Simian virus 40 large-T antigen, were maintained in DMEM (Invitrogen) with 10% FCS. Antioxidant assays. Bronchial epithelial cells (BET1A) exposed to 5 µM 2-ME for 30 min to 24 h, or serum of asthmatic individuals, were assayed for glutathione (GSH), glutathione peroxidase (GPx), catalase, and SOD activity. SOD activity was determined by the rate of reduction of cytochrome c, with one unit (U) of SOD activity defined as the amount of SOD required to inhibit the rate of cytochrome c reduction by 50% (Nebot C, et al., Anal Biochem 1993, 214:442-451). The final reaction volume was 3 ml and included 50 mM potassium phosphate buffer, […] cytochrome c, 0.05 mM xanthine, and a 0.1 mM EDTA solution. Xanthine oxidase (Sigma, St Louis, Mo.) was added at a concentration sufficient to induce a 0.020 per minute change in absorbance at 550 nm. GSH levels were measured as previously described (Comhair S A, et al., Am J Respir Crit Care Med 1999, 159:1824-1829).

[9] = tested on: MnSOD; assay: MnSOD silencing by siRNA in 293T cells, caspase-3 activity; conditions: 48 h after transfection
Procedure: Caspase-3-like enzyme activity. Caspase-3-like activity was measured by a […] assay (BD PharMingen, San Diego, Calif.). This assay measures active caspase-3 binding to fluorogenic Ac-DEVD-AMC substrate and its cleavage to release the fluorescent AMC. AMC fluorescence is quantified by UV spectrofluorometry with an excitation wavelength of 380 nm and an emission wavelength range of 420-460 nm.
Transfection of siRNA MnSOD. MnSOD siRNA was synthesized by Ambion (Austin, Tex.). The sense and antisense MnSOD siRNA were 5-GGAACAACAGGCCUUAUUCtt-3 (sense) and 5-GAAUAAGGCCUGUUGUUCCtt-3 (antisense). Silencer™ Negative control #1 siRNA (siRNA control) (Ambion, Austin Tex.) was used as a control. 293T-cells, at 60% confluence in […] plates, were transfected in serum-free medium (DMEM, Invitrogen, Carlsbad Calif.) by using lipofectamine reagent (Invitrogen, Carlsbad Calif.) according to the manufacturer's instructions. For the silencing experiments, cells were transfected with […] of MnSOD siRNA or with 50 nM of Silencer™ Negative Control #1 siRNA. 48 h after transfection, cells were washed, trypsinized and harvested for evaluation of mRNA, protein expression, and caspase-3 activity.

COc1cc2c(cc1O)CC[C@@H]1[C@@H]2CC[C@]2(C)[C@@H](O)CC[C@@H]12 [2-ME, 2-Methoxyoestradiol]
SOD protein [1]: did not cause a decrease of SOD protein | BAX levels [2]: upregulation of BAX levels | intracellular GSH [3]: rapid depletion of intracellular GSH | apoptotic cells (Annexin V staining) [4]: increase in apoptotic cells as early as 17 h | tyrosine nitrated proteins [5]: increase in tyrosine nitrated proteins | cell viability (trypan blue) [6]: decrease in cell viability | caspase-3 activity [7]: significantly increased | blocked the activity of SOD ([8]; 5 μM, 3 h, p=0.004): up to 86%

MnSOD siRNA: siRNA, sense 5-GGAACAACAGGCCUUAUUCtt-3, antisense 5-GAAUAAGGCCUGUUGUUCCtt-3, synthesized by Ambion (sense GGAACAACAGGCCUUAUUCTT; antisense GAAUAAGGCCUGUUGUUCCTT; 3' tt overhangs, chemistry not given here, further chemistry not given here)
caspase-3 activation [9]: caspase-3 activation

OO [H202, hydrogen peroxide]
apoptosis [4]: increased apoptosis | SOD activity [8]: loss of SOD activity

Oc1cccc(O)c1O [pyrogallol]
apoptosis [4]: increased apoptosis | SOD activity [8]: loss of SOD activity
